Assay [1] deals with Epithelial discoidin domain-containing receptor 1 (Homo sapiens, UniProt Q08345). Particulars: at 1 µM.
The target of assay [2] is High affinity nerve growth factor receptor (Homo sapiens, UniProt P04629). Conditions: at 1 µM.
Assay [3] has as its target Serine/threonine-protein kinase RIO1 (Homo sapiens) (UniProt Q9BRS2). Briefly: Selectivity interaction (KinomeScan (DiscoverX)) EUB0000698a RIOK1. Particulars: at 10 µM.
For assay [4], the target named is Serine/threonine-protein kinase 17A (Homo sapiens, UniProt Q9UEE5). Briefly: Selectivity interaction (KinomeScan (DiscoverX, competition-binding assay)) EUB0000305b STK17A.
Assay [5] deals with Mitogen-activated protein kinase kinase kinase 19 (Homo sapiens, UniProt Q56UN5). Kind of assay: Selectivity interaction (NanoBRET assay (HEK293T cells)) EUB0000305b MAP3K19. (In general: Bioluminescence resonance energy transfer reports proximity on the nanometre scale.)
For assay [6], the system named is T1, Receptor-type tyrosine-protein kinase FLT3 (Homo sapiens), P36888 [D835V].
T1 sequence (whole entry): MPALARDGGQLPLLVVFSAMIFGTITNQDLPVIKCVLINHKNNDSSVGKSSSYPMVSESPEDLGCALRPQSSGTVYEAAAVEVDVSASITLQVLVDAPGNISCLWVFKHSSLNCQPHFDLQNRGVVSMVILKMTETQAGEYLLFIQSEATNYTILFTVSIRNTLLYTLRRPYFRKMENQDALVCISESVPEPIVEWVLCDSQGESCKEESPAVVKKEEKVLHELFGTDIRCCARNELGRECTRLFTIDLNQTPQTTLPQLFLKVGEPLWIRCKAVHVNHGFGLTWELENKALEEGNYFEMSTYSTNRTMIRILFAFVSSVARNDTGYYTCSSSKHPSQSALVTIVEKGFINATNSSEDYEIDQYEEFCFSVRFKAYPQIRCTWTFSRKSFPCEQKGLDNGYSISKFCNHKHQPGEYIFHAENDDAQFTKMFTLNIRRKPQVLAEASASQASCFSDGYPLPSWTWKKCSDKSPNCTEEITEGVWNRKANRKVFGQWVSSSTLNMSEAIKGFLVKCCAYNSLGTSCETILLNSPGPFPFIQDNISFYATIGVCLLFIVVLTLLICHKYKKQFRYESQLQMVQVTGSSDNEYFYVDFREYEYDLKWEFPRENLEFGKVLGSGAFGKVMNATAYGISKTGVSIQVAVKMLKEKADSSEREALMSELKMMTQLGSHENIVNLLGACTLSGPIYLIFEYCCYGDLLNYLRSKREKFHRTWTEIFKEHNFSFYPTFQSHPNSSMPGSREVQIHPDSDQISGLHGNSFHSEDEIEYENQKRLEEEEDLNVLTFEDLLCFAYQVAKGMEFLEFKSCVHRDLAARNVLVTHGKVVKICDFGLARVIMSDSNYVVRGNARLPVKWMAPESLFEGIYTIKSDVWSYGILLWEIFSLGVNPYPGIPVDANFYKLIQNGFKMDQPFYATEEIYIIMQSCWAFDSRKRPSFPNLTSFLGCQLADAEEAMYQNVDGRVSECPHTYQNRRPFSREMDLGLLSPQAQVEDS
Briefly: Selectivity interaction (KinomeScan (DiscoverX)) EUB0000305b FLT3. Particulars: at 100 nM.

Assay [7] deals with Leucine-rich repeat serine/threonine-protein kinase 2 (Homo sapiens), Q5S007 [G2019S]. Kind of assay: Selectivity interaction (KinomeScan (DiscoverX)) EUB0000702a LRRK2. Particulars: at 1 µM.
Assay [8] concerns the target T2, Receptor-interacting serine/threonine-protein kinase 4 (Homo sapiens) (UniProt P57078).
T2 sequence (whole entry): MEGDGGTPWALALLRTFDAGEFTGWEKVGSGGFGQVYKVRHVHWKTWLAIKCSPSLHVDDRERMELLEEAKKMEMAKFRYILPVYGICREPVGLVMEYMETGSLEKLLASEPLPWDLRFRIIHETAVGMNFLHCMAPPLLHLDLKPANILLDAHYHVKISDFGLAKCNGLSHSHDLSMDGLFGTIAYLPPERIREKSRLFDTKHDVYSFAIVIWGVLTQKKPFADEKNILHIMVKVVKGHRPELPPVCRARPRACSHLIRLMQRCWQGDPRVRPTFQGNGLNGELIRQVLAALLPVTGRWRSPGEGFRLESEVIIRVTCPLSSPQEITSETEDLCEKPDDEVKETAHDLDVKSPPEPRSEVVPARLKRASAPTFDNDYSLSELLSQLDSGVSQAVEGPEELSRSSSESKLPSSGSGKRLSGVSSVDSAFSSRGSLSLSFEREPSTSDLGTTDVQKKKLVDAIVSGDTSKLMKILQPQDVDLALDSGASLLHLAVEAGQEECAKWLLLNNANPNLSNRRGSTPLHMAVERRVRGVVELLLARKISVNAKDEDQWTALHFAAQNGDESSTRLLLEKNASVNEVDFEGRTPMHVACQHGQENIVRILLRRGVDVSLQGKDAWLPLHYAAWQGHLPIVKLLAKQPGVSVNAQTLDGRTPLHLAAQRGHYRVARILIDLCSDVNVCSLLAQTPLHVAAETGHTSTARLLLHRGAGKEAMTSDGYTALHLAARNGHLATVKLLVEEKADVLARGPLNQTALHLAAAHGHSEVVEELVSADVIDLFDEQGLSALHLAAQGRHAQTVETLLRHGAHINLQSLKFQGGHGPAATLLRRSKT
Briefly: Selectivity interaction (KinomeScan (DiscoverX)) EUB0000702a RIPK4. Conditions: at 1 µM.

Assay [9] has as its target Serine/threonine-protein kinase DCLK1 (Homo sapiens) (UniProt O15075). Kind of assay: Selectivity interaction (KinomeScan (DiscoverX)) EUB0000178b DCLK1. Particulars: at 1 µM.
Assay [10] concerns the target Serine/threonine-protein kinase TAO2 (Homo sapiens) (UniProt Q9UL54). Kind of assay: Selectivity interaction (KinomeScan (DiscoverX)) EUB0000178b TAOK2. Conditions: at 1 µM.
The target in assay [11] is Non-receptor tyrosine-protein kinase TYK2 (Homo sapiens, UniProt P29597). Kind of assay: Selectivity interaction (KinomeScan (DiscoverX)) EUB0000178b TYK2. Conditions: at 1 µM.
The target in assay [12] is T2, Receptor-interacting serine/threonine-protein kinase 4 (Homo sapiens). Briefly: Selectivity interaction (KinomeScan (DiscoverX)) EUB0000178b RIPK4. Conditions: at 1 µM.
Assay [13] deals with MAP kinase-activated protein kinase 2 (Homo sapiens, UniProt P49137). Briefly: Selectivity interaction (Kinase panel (University of Dundee)) EUB0000169b MAPKAPK2. Conditions: at 10 µM.
The target of assay [14] is Cyclin-dependent kinase 2 (Homo sapiens, UniProt P24941). Kind of assay: Selectivity interaction (Kinase panel (University of Dundee)) EUB0000169b CDK2. Conditions: at 10 µM.
The target in assay [15] is Ribosomal protein S6 kinase alpha-5 (Homo sapiens) (UniProt O75582). Kind of assay: Selectivity interaction (Kinase panel (University of Dundee)) EUB0000169b RPS6KA5. Particulars: at 10 µM.
Assay [16] has as its target Ribosomal protein S6 kinase alpha-4 (Homo sapiens) (UniProt O75676). Briefly: Selectivity interaction (KinomeScan (DiscoverX)) EUB0000169b RPS6KA4. Particulars: at 1 µM.
The target of assay [17] is Mitogen-activated protein kinase 8 (Homo sapiens, UniProt P45983). Conditions: at 10 µM.

Leucine-rich repeat serine/threonine-protein kinase 2 (Homo sapiens), Q5S007 [G2019S], sequence (Q5S007 whole entry G2019S): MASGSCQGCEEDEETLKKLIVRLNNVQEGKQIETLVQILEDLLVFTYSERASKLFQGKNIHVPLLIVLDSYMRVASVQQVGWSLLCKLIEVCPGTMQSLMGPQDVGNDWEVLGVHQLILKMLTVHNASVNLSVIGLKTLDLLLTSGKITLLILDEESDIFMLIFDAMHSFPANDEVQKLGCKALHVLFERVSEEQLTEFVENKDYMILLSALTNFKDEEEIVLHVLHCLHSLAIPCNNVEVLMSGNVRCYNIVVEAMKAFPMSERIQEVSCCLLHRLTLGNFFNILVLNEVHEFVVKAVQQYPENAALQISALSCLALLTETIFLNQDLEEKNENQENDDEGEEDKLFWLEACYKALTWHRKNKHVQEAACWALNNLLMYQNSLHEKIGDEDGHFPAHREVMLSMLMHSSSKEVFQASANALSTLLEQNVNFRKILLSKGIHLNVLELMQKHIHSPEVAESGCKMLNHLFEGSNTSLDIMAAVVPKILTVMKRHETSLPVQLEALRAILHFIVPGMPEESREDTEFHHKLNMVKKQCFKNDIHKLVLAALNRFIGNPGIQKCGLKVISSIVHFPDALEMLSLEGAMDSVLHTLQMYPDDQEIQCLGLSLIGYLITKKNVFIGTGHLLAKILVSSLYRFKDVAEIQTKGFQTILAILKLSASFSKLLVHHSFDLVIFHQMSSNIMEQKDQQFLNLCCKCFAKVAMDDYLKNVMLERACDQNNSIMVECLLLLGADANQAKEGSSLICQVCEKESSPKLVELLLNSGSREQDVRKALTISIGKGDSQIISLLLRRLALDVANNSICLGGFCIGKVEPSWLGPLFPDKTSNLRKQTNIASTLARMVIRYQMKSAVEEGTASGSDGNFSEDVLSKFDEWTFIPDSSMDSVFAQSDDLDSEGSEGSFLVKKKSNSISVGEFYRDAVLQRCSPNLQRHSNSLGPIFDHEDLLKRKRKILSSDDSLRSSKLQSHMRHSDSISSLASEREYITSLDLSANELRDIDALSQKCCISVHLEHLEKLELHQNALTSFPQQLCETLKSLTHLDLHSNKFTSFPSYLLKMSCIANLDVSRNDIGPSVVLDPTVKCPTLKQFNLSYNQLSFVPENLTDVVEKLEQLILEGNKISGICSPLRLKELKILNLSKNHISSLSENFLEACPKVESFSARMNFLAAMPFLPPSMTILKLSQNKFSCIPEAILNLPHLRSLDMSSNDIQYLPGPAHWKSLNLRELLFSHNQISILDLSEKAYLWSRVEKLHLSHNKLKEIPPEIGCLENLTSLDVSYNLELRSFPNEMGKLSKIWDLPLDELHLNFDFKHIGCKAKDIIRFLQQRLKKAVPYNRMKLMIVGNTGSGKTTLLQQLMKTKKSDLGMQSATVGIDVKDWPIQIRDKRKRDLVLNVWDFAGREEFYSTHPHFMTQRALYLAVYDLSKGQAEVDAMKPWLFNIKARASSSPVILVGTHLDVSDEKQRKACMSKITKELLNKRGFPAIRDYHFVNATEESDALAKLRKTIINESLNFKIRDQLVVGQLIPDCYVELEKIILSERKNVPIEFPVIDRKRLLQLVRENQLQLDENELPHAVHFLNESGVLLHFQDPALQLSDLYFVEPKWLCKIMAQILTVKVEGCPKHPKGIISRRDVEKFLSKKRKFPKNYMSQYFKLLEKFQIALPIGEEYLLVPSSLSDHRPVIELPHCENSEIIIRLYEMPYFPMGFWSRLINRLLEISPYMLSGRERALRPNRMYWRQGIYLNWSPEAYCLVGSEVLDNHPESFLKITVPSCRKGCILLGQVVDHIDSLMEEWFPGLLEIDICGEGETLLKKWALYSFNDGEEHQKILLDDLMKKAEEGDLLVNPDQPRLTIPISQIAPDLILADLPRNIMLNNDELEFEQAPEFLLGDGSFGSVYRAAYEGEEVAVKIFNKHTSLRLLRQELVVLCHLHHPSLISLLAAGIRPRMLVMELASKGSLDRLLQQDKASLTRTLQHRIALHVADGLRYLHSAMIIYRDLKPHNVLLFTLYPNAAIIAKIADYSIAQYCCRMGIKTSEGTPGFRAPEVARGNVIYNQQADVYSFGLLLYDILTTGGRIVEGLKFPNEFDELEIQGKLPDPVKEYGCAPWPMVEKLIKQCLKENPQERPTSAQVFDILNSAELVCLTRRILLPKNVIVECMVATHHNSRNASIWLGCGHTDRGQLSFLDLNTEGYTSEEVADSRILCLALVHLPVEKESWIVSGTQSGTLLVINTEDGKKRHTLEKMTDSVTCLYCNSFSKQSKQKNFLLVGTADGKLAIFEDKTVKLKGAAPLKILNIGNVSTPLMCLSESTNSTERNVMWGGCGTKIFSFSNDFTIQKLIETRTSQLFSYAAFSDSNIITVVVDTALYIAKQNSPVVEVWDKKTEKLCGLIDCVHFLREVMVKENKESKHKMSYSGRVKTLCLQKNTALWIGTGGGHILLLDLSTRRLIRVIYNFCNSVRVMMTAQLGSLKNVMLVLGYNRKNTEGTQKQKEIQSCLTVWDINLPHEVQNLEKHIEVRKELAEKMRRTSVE
Serine/threonine-protein kinase TAO2 (Homo sapiens), sequence (Q9UL54 whole entry): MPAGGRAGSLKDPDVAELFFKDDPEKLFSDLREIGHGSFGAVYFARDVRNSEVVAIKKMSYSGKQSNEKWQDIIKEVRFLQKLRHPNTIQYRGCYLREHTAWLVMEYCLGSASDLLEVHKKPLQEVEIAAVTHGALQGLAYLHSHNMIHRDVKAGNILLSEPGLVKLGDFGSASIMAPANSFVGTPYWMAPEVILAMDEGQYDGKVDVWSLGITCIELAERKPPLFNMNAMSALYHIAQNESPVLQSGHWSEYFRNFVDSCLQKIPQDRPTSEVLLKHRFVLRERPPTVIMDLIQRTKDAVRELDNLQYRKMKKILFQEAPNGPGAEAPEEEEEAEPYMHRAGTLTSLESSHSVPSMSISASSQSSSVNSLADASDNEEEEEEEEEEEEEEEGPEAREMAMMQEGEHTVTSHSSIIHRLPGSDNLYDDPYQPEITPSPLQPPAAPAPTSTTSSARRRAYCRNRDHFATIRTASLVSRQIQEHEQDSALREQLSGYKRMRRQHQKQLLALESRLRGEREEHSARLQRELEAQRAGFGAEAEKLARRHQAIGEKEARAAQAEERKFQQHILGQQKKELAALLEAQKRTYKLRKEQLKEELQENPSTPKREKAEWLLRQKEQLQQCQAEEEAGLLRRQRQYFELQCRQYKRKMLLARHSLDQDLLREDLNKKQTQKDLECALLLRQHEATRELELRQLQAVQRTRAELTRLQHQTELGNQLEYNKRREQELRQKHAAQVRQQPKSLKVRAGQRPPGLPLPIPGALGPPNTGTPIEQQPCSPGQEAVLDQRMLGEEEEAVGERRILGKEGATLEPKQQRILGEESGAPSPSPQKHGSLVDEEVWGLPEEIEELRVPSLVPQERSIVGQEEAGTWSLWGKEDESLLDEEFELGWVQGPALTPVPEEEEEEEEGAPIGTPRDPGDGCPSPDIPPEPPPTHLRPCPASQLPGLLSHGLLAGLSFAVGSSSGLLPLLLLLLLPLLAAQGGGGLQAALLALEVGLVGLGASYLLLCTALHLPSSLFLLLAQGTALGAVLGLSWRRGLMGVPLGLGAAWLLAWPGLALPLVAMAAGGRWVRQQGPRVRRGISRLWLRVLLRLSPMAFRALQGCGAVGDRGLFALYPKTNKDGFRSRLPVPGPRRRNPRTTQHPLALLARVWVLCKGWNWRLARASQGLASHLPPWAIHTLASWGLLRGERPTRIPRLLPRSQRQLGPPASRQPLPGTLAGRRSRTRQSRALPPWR
Serine/threonine-protein kinase DCLK1 (Homo sapiens), sequence (O15075 whole entry): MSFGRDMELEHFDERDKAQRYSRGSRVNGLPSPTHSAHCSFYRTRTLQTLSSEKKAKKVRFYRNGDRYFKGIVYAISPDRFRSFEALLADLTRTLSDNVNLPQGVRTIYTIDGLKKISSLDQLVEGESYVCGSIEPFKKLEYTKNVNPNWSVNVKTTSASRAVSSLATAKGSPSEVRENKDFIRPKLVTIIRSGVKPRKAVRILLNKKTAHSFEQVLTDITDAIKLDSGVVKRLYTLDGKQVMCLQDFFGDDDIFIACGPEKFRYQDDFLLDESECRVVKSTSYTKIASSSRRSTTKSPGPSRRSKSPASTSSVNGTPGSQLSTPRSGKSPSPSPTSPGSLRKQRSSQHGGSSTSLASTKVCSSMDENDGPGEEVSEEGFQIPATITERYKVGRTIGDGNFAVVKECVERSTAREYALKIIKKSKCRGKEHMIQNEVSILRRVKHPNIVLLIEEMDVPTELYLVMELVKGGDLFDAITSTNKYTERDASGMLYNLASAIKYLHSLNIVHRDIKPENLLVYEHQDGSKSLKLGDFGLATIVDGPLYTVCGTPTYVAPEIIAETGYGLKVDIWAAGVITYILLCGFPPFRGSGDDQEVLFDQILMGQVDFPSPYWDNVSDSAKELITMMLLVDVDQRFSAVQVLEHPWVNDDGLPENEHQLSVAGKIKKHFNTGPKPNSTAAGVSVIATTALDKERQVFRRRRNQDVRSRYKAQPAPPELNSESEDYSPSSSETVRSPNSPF
Serine/threonine-protein kinase RIO1 (Homo sapiens), sequence (Q9BRS2 whole entry): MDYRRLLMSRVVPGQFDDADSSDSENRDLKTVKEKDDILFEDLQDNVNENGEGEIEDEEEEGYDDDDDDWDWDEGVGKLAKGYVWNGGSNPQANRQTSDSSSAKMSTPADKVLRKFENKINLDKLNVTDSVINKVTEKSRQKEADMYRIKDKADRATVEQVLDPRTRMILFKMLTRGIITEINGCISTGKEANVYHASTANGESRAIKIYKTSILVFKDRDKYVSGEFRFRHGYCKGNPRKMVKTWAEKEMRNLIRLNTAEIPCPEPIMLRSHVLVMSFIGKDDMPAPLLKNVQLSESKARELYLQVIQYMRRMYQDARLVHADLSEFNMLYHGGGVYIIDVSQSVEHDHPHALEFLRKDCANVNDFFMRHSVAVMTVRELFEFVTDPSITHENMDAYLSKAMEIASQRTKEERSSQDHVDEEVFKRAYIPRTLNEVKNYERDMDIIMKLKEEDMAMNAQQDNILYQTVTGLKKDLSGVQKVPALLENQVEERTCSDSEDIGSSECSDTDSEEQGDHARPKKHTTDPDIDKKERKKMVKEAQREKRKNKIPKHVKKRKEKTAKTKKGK

Turning to `CCOc1cn(-c2ccc(F)cc2C)nc1C(=O)Nc1ccc(Oc2ccnc3cc(OC)c(OC)cc23)c(F)c1`, the % of control in assay [1] and in assay [2] was under 10% throughout.
Compound `COc1cc2ncn(-c3cc(OCc4ccccc4C(F)(F)F)c(C(N)=O)s3)c2cc1OC` [GW843682X] had a % of control in [3] of 4.1%.
Turning to `C[C@H](c1ccnc(Nc2nc3ccc(-c4cc(N(C)C)ncn4)cc3[nH]2)c1)N1CCN(C(=O)CC(F)(F)F)CC1` [BAY-985], the affinity in assay [4], expressed as Kd, was 74 nM. For the same compound, the IC50 (in general, the concentration that gives 50% inhibition) in assay [5] was over 20000 nM. For the same compound, the % of control in assay [6] stood at 32%.
With `CN(c1ccnc(CNc2nc(Nc3ccc4c(c3)CC(=O)N4)ncc2C(F)(F)F)n1)S(C)(=O)=O` [PF-00911705], the % of control in [7] came out at 7.3%; in [8] it was 6%.
In the case of `CN1C(=O)c2sccc2N(C)c2nc(Nc3ccc(S(N)(=O)=O)cc3)ncc21`, the % of control worked out at 8.3% in [9], 3.4% in assay [10], 2.7% in assay [11] and 9.5% in assay [12].
With `CC[C@@H]1C(=O)N(C)c2cnc(Nc3ccc(C(=O)NC4CCN(C)CC4)cc3OC)nc2N1C1CCCC1`, the % of control in [13] worked out at 79%; in [14], 20%; in assay [15] it was 89%; in [16], 0.3%; in assay [17] it was 92%.

Values taken from ChEMBL document CHEMBL5212743, “Selectivity Literature for EUbOPEN Chemogenomics Library wave 3” (2023).
